Results taken from publication PMC6397651 (Journal of pharmaceutical and biomedical analysis, 2018).
Several values for one entry are separate records, joined by “and”; a condition that tells them apart may be missing. Equal values may be shown once.

What was measured:
[1] = Stability of analytes in rat plasma; type: in vitro ADME; details: for Autosampler stability, % Accuracy / Short-term Stability, % Accuracy: 20°C, 24 hr; for Auto sampler stability / Mean freeze-thaw stability / Mean long term stability / Mean short term stability: range over LQC and HQC; for Short-term Stability, % Accuracy / Mean freeze-thaw stability / Mean long term stability / Mean short term stability / Long-term Stability, % Accuracy / Freeze-Thaw Stability, % Accuracy: rat plasma; for Long-term Stability, % Accuracy / Freeze-Thaw Stability, % Accuracy: −70 ± 10°C; for Long-term Stability, % Accuracy: 30 days; for Freeze-Thaw Stability, % Accuracy: three cycles
[2] = In-vivo pharmacokinetic study in rats: passive cannabis smoke inhalation; details: for CL/F (apparent clearance): Rimonabant 3 mg/kg i.p.
[3] = male, Wistar, rat, plasma, ip, 3 mg/kg
[4] = THC, inhalation, 50 min smoke exposure, Wistar rats
[5] = male, Wistar, rat, plasma, inhaled or intranasal, 0.05 mg/kg

SMILES	Autosampler stability, % Accuracy ([1]; HQC 80 ng/mL)	Autosampler stability, % Accuracy ([1]; LQC 0.3 ng/mL)	Auto sampler stability [1]	Short-term Stability, % Accuracy ([1]; HQC 80 ng/mL)	Short-term Stability, % Accuracy ([1]; LQC 0.3 ng/mL)	Mean freeze-thaw stability [1]	Mean long term stability [1]	Mean short term stability [1]	Long-term Stability, % Accuracy ([1]; HQC 80 ng/mL)	Long-term Stability, % Accuracy ([1]; LQC 0.3 ng/mL)	Freeze-Thaw Stability, % Accuracy ([1]; HQC 80 ng/mL)	Freeze-Thaw Stability, % Accuracy ([1]; LQC 0.3 ng/mL)	also measured
C=C(C)[C@@H]1CCC(C)=C[C@H]1c1c(O)cc(CCCCC)cc1O [CBD, cannabidiol]	96.80%	103.60%	96.80–103.60%	99.60%	97.50%	105.21–108.50%	103.30–106.50%	97.50–99.60%	103.30%	106.50%	105.21%	108.50%	
Cc1c(C(=O)NN2CCCCC2)nn(-c2ccc(Cl)cc2Cl)c1-c1ccc(Cl)cc1 [Rimonabant, rimonabant]	102.30%	104.50%	102.30–104.50%	104.30%	95.70%	106.25–109.50%	96.90–99.40%	95.70–104.30%	99.40%	96.90%	109.50%	106.25%	CL/F (apparent clearance) ([2]; Wistar rats): 2.0 L/h and 2.0 ± 0.3 L/h; CL/F (apparent clearance) ([2]; Wistar rats, listed as rimonabant): 2 L/h; AUC(0-inf) [2, 3]: 458 ng·h/mL; AUC(0-t) [2, 3]: 308 ± 55 ng·h/mL; Cmax [2, 3]: 88.6 ± 5.64 ng/mL; Tmax [2, 3]: 0.2 ± 0.07 h; half-life [2, 3]: 5.4 ± 0.85 h
CCCCCc1cc(O)c2c(c1)OC(C)(C)[C@@H]1CCC(C)=C[C@@H]21 [THC, delta-9-tetrahydrocannabinol]	99.97%	105.30%		104.40%	103.20%			103.20–104.40%	97.20%	108.30%	109.20%	112.80%	CL (clearance) [2, 4]: 1.1 ± 0.26 L/h; Vss (volume of distribution at steady state) [2, 4]: 3.9 ± 2.07 L; AUC(0-inf) [2, 5]: 13.9 ± 3.8 ng·h/mL; AUC(0-t) [2, 5]: 12.2 ± 3 ng·h/mL; half-life [2, 5]: 3.7 ± 1.3 h; AUC(0-inf) ([2]; male, Wistar, rat, plasma, inhaled, 0.05 mg/kg): 13.9 ng·h/mL
